ChEMBL document CHEMBL4507278 (2021)

Key:
[1] = biological target: Calcium/calmodulin-dependent protein kinase type 1 (Homo sapiens) (UniProt Q14012); conditions: Compound concentration 1000.0 nM
[2] = biological target: Tyrosine-protein kinase ZAP-70 (Homo sapiens) (UniProt P43403); conditions: Compound concentration 1000.0 nM
[3] = biological target: Angiopoietin-1 receptor (Homo sapiens) (UniProt Q02763); conditions: Compound concentration 1000.0 nM
[4] = test system: Receptor-type tyrosine-protein kinase FLT3 (Homo sapiens), P36888 [N841I]; conditions: Compound concentration 1000.0 nM
[5] = biological target: 5-hydroxytryptamine receptor 2A (Homo sapiens) (UniProt P28223); conditions: Compound concentration 10.0 uM
[6] = biological target: Cyclin-dependent kinase 4 (Homo sapiens) (UniProt P11802); conditions: Compound concentration 1000.0 nM
[7] = biological target: Beta-2 adrenergic receptor (Homo sapiens) (UniProt P07550); conditions: Compound concentration 10.0 uM
[8] = biological target: Mitogen-activated protein kinase kinase kinase 1 (Homo sapiens) (UniProt Q13233); conditions: Compound concentration 1000.0 nM
[9] = biological target: Alpha-2B adrenergic receptor (Homo sapiens) (UniProt P18089); conditions: Compound concentration 10.0 uM
[10] = biological target: Microtubule-associated serine/threonine-protein kinase 1 (Homo sapiens) (UniProt Q9Y2H9); conditions: Compound concentration 1000.0 nM
[11] = biological target: Platelet-derived growth factor receptor alpha (Homo sapiens) (UniProt P16234); conditions: Compound concentration 1000.0 nM
[12] = biological target: RAC-alpha serine/threonine-protein kinase (Homo sapiens) (UniProt P31749); conditions: Compound concentration 1000.0 nM
[13] = test system: Proto-oncogene tyrosine-protein kinase receptor Ret (Homo sapiens), P07949 [M918T]; conditions: Compound concentration 1000.0 nM
[14] = biological target: Calcium/calmodulin-dependent protein kinase kinase 2 (Homo sapiens) (UniProt Q96RR4); conditions: Compound concentration 1000.0 nM
[15] = biological target: Ribosomal protein S6 kinase alpha-1 (Homo sapiens) (UniProt Q15418); conditions: Compound concentration 1000.0 nM
[16] = biological target: Tyrosine-protein kinase JAK1 (Homo sapiens) (UniProt P23458); conditions: Compound concentration 1000.0 nM
[17] = biological target: Ribosomal protein S6 kinase alpha-2 (Homo sapiens) (UniProt Q15349); conditions: Compound concentration 1000.0 nM
[18] = biological target: Serine/threonine-protein kinase 10 (Homo sapiens) (UniProt O94804); conditions: Compound concentration 1000.0 nM
[19] = test system: Mast/stem cell growth factor receptor Kit (Homo sapiens), P10721 [V559D,T670I]; conditions: Compound concentration 1000.0 nM
[20] = biological target: Ankyrin repeat and protein kinase domain-containing protein 1 (Homo sapiens) (UniProt Q8NFD2); conditions: Compound concentration 1000.0 nM
[21] = biological target: Homeodomain-interacting protein kinase 1 (Homo sapiens) (UniProt Q86Z02); conditions: Compound concentration 1000.0 nM
[22] = biological target: Cyclin-dependent kinase-like 5 (Homo sapiens) (UniProt O76039); conditions: Compound concentration 1000.0 nM
[23] = test system: Tyrosine-protein kinase ABL1 (Homo sapiens), P00519 [H396P]; conditions: Compound concentration 1000.0 nM
[24] = biological target: Muscarinic acetylcholine receptor M5 (Homo sapiens) (UniProt P08912); conditions: Compound concentration 10.0 uM
[25] = biological target: Serine/threonine-protein kinase SBK1 (Homo sapiens) (UniProt Q52WX2); conditions: Compound concentration 1000.0 nM
[26] = biological target: Serine/threonine-protein kinase/endoribonuclease IRE1 (Homo sapiens) (UniProt O75460); conditions: Compound concentration 1000.0 nM
[27] = biological target: Serine/threonine-protein kinase LATS1 (Homo sapiens) (UniProt O95835); conditions: Compound concentration 1000.0 nM
[28] = biological target: Cyclin-dependent kinase 8 (Homo sapiens) (UniProt P49336); conditions: Compound concentration 1000.0 nM
[29] = biological target: Epidermal growth factor receptor (Homo sapiens) (UniProt P00533); conditions: Compound concentration 1000.0 nM
[30] = biological target: Dual specificity protein kinase CLK3 (Homo sapiens) (UniProt P49761); conditions: Compound concentration 1000.0 nM
[31] = biological target: Dual specificity protein kinase CLK1 (Homo sapiens) (UniProt P49759); conditions: Compound concentration 1000.0 nM
[32] = biological target: Homeodomain-interacting protein kinase 4 (Homo sapiens) (UniProt Q8NE63); conditions: Compound concentration 1000.0 nM
[33] = biological target: Glutamate NMDA receptor (Rattus norvegicus) (UniProt P35439+Q00959+Q00960+Q00961+Q62645+Q8VHN2+Q9R1M7); experiment: NMDAAGSI/RA Eurofins-Panlabs selectivity data (BI); assay type: protein-complex assay; conditions: filed as agonist, Compound concentration 10.0 uM
[34] = biological target: D(1A) dopamine receptor (Homo sapiens) (UniProt P21728); experiment: D1/HU Eurofins-Panlabs selectivity data (BI); conditions: Compound concentration 10.0 uM
[35] = biological target: Muscarinic acetylcholine receptor M3 (Homo sapiens) (UniProt P20309); experiment: M3/HU Eurofins-Panlabs selectivity data (BI); conditions: Compound concentration 10.0 uM
[36] = biological target: Voltage-dependent N-type calcium channel subunit alpha-1B (Rattus norvegicus) (UniProt Q02294); experiment: CA+/N/RA Eurofins-Panlabs selectivity data (BI); conditions: Compound concentration 10.0 uM
[37] = biological target: B1 bradykinin receptor (Homo sapiens) (UniProt P46663); experiment: B1/H Eurofins-Panlabs selectivity data (BI); conditions: Compound concentration 10.0 uM
[38] = biological target: 5-hydroxytryptamine receptor 2B (Homo sapiens) (UniProt P41595); experiment: 5HT2B/HU Eurofins-Panlabs selectivity data (BI); conditions: Compound concentration 10.0 uM
hERG (KCNH2) = hERG (KCNH2) (Homo sapiens, UniProt Q12809); experiment: K+/HERG Eurofins-Panlabs selectivity data (BI); conditions: compound concentration 10 uM, read-out: % Ctrl

Homeodomain-interacting protein kinase 4 (Homo sapiens), sequence (Q8NE63 whole entry): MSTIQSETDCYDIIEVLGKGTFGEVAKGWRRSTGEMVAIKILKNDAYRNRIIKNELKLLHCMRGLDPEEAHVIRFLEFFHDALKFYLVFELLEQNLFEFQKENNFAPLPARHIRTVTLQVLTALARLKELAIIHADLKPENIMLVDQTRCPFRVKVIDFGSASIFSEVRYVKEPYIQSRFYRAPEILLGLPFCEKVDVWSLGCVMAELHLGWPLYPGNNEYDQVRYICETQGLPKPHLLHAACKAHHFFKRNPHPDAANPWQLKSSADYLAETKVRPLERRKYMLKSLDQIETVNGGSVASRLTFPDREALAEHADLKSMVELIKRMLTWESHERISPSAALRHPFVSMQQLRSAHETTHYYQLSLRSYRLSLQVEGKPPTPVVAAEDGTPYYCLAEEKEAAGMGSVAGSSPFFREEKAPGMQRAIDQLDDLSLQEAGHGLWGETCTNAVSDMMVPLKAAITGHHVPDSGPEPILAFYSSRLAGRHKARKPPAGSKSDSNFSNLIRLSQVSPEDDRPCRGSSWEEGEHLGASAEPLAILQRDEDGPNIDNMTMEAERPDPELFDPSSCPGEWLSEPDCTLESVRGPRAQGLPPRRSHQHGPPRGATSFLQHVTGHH
Ribosomal protein S6 kinase alpha-2 (Homo sapiens), sequence (Q15349 whole entry): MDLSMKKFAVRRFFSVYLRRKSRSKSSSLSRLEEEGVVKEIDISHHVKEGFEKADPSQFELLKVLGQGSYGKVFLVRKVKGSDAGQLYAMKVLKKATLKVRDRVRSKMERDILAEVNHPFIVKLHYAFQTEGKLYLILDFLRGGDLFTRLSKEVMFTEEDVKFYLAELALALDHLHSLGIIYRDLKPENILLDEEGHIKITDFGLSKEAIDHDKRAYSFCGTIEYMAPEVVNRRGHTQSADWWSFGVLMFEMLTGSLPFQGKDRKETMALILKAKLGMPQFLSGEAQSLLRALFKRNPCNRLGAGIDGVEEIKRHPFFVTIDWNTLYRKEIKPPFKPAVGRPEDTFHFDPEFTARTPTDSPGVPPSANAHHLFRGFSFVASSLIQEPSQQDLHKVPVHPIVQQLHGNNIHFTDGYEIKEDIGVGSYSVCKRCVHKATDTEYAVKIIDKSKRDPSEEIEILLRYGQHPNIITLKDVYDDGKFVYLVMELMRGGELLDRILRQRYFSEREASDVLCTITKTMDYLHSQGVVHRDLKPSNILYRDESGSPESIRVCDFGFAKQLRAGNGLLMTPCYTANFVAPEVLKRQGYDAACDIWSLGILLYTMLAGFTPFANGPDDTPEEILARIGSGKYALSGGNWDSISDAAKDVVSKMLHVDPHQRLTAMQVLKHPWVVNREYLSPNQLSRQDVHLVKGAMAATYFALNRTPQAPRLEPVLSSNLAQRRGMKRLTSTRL
Ankyrin repeat and protein kinase domain-containing protein 1 (Homo sapiens), sequence (Q8NFD2 whole entry, the tested form may be a part): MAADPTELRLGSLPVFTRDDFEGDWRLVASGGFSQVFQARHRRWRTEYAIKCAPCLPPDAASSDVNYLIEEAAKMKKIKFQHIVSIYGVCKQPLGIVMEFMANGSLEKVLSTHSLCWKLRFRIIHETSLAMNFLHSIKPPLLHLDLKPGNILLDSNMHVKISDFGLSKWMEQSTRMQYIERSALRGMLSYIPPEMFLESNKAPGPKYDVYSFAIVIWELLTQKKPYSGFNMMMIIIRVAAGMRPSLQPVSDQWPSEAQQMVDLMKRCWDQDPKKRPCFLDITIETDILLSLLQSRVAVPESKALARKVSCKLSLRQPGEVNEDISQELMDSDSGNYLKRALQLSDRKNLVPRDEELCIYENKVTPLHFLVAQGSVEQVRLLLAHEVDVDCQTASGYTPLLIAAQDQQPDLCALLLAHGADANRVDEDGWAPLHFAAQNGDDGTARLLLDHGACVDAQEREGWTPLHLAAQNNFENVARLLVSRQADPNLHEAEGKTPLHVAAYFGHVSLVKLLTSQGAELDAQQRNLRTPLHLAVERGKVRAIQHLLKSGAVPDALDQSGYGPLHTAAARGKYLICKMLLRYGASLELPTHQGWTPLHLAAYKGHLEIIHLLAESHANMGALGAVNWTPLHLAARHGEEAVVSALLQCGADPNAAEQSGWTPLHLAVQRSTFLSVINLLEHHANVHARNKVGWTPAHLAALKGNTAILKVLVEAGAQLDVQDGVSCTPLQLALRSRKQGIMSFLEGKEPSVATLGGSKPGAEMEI
Ribosomal protein S6 kinase alpha-1 (Homo sapiens), sequence (Q15418 whole entry): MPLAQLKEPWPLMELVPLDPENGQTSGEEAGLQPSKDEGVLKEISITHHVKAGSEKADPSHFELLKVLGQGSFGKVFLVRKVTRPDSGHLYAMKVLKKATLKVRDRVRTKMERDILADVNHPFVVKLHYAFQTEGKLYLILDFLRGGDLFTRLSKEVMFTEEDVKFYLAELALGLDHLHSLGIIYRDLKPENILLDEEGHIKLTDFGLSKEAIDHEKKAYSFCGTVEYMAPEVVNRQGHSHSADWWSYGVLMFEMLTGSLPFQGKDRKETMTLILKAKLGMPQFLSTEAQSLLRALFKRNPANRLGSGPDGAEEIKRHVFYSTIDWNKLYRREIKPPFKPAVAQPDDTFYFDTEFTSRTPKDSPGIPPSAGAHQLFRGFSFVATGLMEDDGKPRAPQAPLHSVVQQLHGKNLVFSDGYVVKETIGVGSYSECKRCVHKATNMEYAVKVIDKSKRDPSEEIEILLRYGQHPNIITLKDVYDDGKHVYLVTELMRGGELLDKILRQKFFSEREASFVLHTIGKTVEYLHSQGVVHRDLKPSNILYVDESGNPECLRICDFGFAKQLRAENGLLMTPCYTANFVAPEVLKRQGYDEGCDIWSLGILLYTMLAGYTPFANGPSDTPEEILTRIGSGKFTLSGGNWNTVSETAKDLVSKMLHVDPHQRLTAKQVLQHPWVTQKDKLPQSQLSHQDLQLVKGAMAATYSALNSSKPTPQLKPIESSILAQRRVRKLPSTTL
Microtubule-associated serine/threonine-protein kinase 1 (Homo sapiens), sequence (Q9Y2H9 whole entry, looked up): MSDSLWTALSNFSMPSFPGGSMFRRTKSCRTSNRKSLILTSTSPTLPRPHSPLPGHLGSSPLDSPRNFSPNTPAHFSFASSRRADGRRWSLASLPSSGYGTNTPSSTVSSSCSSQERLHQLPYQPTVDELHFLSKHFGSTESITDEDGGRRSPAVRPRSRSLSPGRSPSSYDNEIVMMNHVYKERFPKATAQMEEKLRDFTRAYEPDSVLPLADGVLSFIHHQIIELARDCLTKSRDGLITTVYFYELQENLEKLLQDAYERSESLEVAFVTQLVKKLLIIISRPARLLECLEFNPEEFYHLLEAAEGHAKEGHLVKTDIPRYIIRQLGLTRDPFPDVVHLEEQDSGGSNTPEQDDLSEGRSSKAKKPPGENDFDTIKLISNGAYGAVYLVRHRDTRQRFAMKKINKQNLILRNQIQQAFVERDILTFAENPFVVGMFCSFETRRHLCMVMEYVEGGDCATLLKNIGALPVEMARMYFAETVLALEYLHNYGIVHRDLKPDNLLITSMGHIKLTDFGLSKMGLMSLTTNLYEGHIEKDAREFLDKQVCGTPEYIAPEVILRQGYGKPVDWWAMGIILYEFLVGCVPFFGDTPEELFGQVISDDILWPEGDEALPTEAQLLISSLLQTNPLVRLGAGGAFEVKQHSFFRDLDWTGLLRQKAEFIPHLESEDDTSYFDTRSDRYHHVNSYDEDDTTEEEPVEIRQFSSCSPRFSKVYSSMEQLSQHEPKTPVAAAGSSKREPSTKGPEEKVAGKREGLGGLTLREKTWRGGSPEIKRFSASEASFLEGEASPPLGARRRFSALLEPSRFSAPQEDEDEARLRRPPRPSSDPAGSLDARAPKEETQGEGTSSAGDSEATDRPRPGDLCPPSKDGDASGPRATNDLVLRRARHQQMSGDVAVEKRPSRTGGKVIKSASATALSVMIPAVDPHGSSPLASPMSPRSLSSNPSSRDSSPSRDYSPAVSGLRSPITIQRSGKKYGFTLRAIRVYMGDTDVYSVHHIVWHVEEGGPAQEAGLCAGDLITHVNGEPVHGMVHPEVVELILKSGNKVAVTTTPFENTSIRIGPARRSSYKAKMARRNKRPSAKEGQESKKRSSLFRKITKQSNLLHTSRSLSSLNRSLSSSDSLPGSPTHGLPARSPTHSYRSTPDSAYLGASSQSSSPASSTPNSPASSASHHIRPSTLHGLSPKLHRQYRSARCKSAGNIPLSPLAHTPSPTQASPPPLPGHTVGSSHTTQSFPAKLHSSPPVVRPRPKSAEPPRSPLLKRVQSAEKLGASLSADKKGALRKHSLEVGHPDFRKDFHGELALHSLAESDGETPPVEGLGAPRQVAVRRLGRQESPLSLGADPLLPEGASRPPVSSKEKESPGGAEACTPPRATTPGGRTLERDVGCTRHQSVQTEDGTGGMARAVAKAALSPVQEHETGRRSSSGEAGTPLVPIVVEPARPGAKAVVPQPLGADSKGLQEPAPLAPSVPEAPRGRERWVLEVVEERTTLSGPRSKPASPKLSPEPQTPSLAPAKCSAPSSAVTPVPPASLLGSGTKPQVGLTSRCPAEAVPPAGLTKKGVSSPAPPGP
Calcium/calmodulin-dependent protein kinase type 1 (Homo sapiens), sequence (Q14012 whole entry, looked up): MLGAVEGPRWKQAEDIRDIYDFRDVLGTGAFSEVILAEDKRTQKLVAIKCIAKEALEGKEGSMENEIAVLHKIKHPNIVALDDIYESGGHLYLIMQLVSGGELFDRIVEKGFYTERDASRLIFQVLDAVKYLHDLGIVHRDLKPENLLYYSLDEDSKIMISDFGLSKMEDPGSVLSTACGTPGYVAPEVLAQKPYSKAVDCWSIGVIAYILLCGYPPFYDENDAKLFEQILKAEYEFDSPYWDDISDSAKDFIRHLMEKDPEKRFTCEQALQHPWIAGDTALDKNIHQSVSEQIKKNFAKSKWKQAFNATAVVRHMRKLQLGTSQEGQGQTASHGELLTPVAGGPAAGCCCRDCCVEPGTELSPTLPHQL

Compound	residual activity [1]	residual activity [2]	residual activity [3]	residual activity [4]	inhibition [5]	residual activity [6]	inhibition [7]	residual activity [8]	inhibition [9]	residual activity [10]	residual activity [11]	residual activity [12]	residual activity [13]	residual activity [14]	residual activity [15]	residual activity [16]	residual activity [17]	residual activity [18]	residual activity [19]	residual activity [20]	other results
CS(=O)(=O)NCC[C@H](NC(=O)c1cncc2c1cnn2-c1ccc(F)cc1)c1ccnc(S(C)(=O)=O)c1 [BI 9307]	94%	80%	84%	91%	11.8%	95%	-5.93%	100%	-2.26%	100%	100%	100%	100%	100%	100%	96%	100%	100%	100%	100%	residual activity [21]: 100%; residual activity [22]: 100%; residual activity [23]: 97%; inhibition [24]: 5.99%; residual activity [25]: 96%; residual activity [26]: 100%; residual activity [27]: 100%; residual activity [28]: 100%; residual activity [29]: 84%; residual activity [30]: 99%; residual activity [31]: 93%; residual activity [32]: 100%
CS(=O)(=O)c1cc(C2(NC(=O)c3cncc4c3cnn4-c3ccc(F)cc3)CC2)ccn1 [BI 639667]	65%	71%	100%	100%	20.4%	100%	-7.76%	100%	13.2%	100%	90%	100%	100%	75%	79%	96%	100%	99%	84%	96%	residual activity [33]: 86%; residual activity [34]: 100%; residual activity [35]: 94%; residual activity [36]: 90%; residual activity [22]: 89%; residual activity [23]: 100%; inhibition [24]: 3.92%; residual activity [25]: 95%; residual activity [37]: 99%; residual activity [27]: 98%; residual activity [28]: 100%; residual activity [29]: 100%; residual activity [30]: 86%; residual activity [31]: 98%; residual activity [38]: 93%; activity at 10 µM (hERG (KCNH2)): 104% (not active); residual activity [32]: 100%
